Test results from PubChem BioAssay AID248 (DTP/NCI, 2004).
Where “and” joins values, the source holds several entries; their conditions need not be identical. Equal entries are not always repeated. Toxic doses and inconclusive results are not listed. Rule as the data show it: active = T/C of 150% or more; inactive = T/C below 125%.

System: L1210 leukemia ip in BDF1 mice, survival T/C
Experiment: NCI In Vivo Anticancer Drug Screen. Data for tumor model L1210 Leukemia (intraperitoneal) in B6D2F1 (BDF1) mice
Conditions: endpoint: mean survival time, higher = longer survival
Summary of the method: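 Tumor cells were implanted, animals were treated, and survival was followed. The result divides the treated measurement by the vehicle-control measurement.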

[1] = dose: 100.0 mg/kg/injection, schedule: Q04DX002 (ip), vehicle: saline with Tween-80
[2] = dose: 200.0 mg/kg/injection, schedule: Q04DX002 (ip), vehicle: saline with Tween-80
[3] = dose: 400.0 mg/kg/injection, schedule: Q04DX002 (ip), vehicle: saline with Tween-80
[4] = dose: 50.0 mg/kg/injection, schedule: Q01DX009 (ip), vehicle: saline with Tween-80
[5] = dose: 100.0 mg/kg/injection, schedule: Q01DX009 (ip), vehicle: saline with Tween-80
[6] = dose: 100.0 mg/kg/injection, schedule: Q04DX002 (ip), vehicle: Klucel (hydroxypropylcellulose) (HPC)
[7] = dose: 200.0 mg/kg/injection, schedule: Q04DX002 (ip), vehicle: Klucel (hydroxypropylcellulose) (HPC)
[8] = dose: 400.0 mg/kg/injection, schedule: Q04DX002 (ip), vehicle: Klucel (hydroxypropylcellulose) (HPC)
[9] = dose: 100.0 mg/kg/injection, schedule: Q01DX009 (ip), vehicle: saline
[10] = dose: 200.0 mg/kg/injection, schedule: Q01DX009 (ip), vehicle: saline
[11] = dose: 400.0 mg/kg/injection, schedule: Q01DX009 (ip), vehicle: saline
[12] = dose: 200.0 mg/kg/injection, schedule: Q01DX009 (ip), vehicle: saline with Tween-80
[13] = dose: 400.0 mg/kg/injection, schedule: Q01DX009 (ip), vehicle: saline with Tween-80
[14] = dose: 100.0 mg/kg/injection, schedule: Q01DX001 (ip), vehicle: saline with Tween-80
[15] = dose: 100.0 mg/kg/injection, schedule: Q01DX001 (ip), vehicle: saline
[16] = dose: 200.0 mg/kg/injection, schedule: Q01DX001 (ip), vehicle: saline
[17] = dose: 400.0 mg/kg/injection, schedule: Q01DX001 (ip), vehicle: saline
[18] = dose: 100.0 mg/kg/injection, schedule: Q04DX003 (ip), vehicle: saline with Tween-80
[19] = dose: 200.0 mg/kg/injection, schedule: Q04DX003 (ip), vehicle: saline with Tween-80
[20] = dose: 400.0 mg/kg/injection, schedule: Q04DX003 (ip), vehicle: saline with Tween-80
[21] = dose: 50.0 mg/kg/injection, schedule: Q01DX001 (ip), vehicle: saline
[22] = dose: 100.0 mg/kg/injection, schedule: Q01DX009 (ip), vehicle: Klucel (hydroxypropylcellulose) (HPC)
[23] = dose: 200.0 mg/kg/injection, schedule: Q01DX009 (ip), vehicle: Klucel (hydroxypropylcellulose) (HPC)
[24] = dose: 400.0 mg/kg/injection, schedule: Q01DX009 (ip), vehicle: Klucel (hydroxypropylcellulose) (HPC)

Measured: T/C

CN(C)CCCNC(=S)S
inactive: dose: 6.0 mg/kg/injection, schedule: Q01DX009 (ip), vehicle: saline 106 % of control | dose: 12.0 mg/kg/injection, schedule: Q01DX009 (ip), vehicle: saline 100 % of control | dose: 25.0 mg/kg/injection, schedule: Q01DX009 (ip), vehicle: saline 111 % of control

Nc1nc(-c2ccccc2)[nH]c(=O)c1N=O
inactive: [1] 98 % of control | [2] 87 % of control | [3] 102 % of control

Cc1ccccc1NC(=O)NCCBr
inactive: [4] 95 % of control | [5] 95 % of control

O=C(Cc1ccccc1)Nc1ccc(Cl)c(Cl)c1
inactive: [6] 100 % of control | [7] 100 % of control | [8] 96 % of control

C=CCS(=O)(=O)c1ccccc1
inactive: [9] 106 % of control | [10] 98 % of control | [11] 101 % of control

C/C=C(\CC)C(=O)O.[Pb]
inactive: dose: 50.0 mg/kg/injection, schedule: Q04DX002 (ip), vehicle: saline with Tween-80 97 % of control | [1] 96 % of control and 119 % of control | [2] 100 % of control | [3] 92 % of control

c1ccc2sccc2c1
inactive: [5] 110 % of control | [12] 111 % of control | [13] 116 % of control

O=[N+]([O-])C=C1CCCCC1
inactive: [14] 101 % of control | dose: 200.0 mg/kg/injection, schedule: Q01DX001 (ip), vehicle: saline with Tween-80 109 % of control

C=C1C(=O)OC2CCCCC3OC3C12 (stereo not given)
inactive: [14] 102 % of control

Nc1cc(Nc2ccc(CCO)cc2)nc(N)n1
inactive: dose: 200.0 mg/kg/injection, schedule: Q01DX Z (ip), vehicle: methylcellulose (MC) 86 % of control

O=C(CC(=O)c1ccco1)c1ccccc1
inactive: [15] 102 % of control | [16] 100 % of control | [17] 96 % of control

Cc1cccc2c1C(=O)OC2(CC(=O)O)c1ccccc1 (stereo not given)
inactive: dose: 37.5 mg/kg/injection, schedule: Q04DX002 (ip), vehicle: saline with Tween-80 101 % of control | dose: 75.0 mg/kg/injection, schedule: Q04DX002 (ip), vehicle: saline with Tween-80 101 % of control | dose: 150.0 mg/kg/injection, schedule: Q04DX002 (ip), vehicle: saline with Tween-80 101 % of control

CN(C(=O)c1cccnc1)c1ccccc1
inactive: [18] 94 % of control | [19] 96 % of control | [20] 107 % of control

OC1CC[N-]CC1.OC1CC[N-]CC1.[Cl][Pt+2]([Cl])([Cl])[Cl]
inactive: dose: 12.5 mg/kg/injection, schedule: Q01DX009 (ip), vehicle: saline with Tween-80 100 % of control | dose: 25.0 mg/kg/injection, schedule: Q01DX009 (ip), vehicle: saline with Tween-80 103 % of control | dose: 25.0 mg/kg/injection, schedule: Q04DX003 (ip), vehicle: saline with Tween-80 100 % of control | [4] 92 % of control | dose: 50.0 mg/kg/injection, schedule: Q04DX003 (ip), vehicle: saline with Tween-80 107 % of control | [18] 112 % of control and 119 % of control

COc1ccc(OC(=O)Nc2ccc(C)cc2[N+](=O)[O-])cc1
inactive: [18] 102 % of control | [19] 98 % of control | [20] 93 % of control

O=c1cc(CCCCCc2ccccc2)[nH]c(=O)[nH]1
inactive: dose: 100.0 mg/kg/injection, schedule: Q01DX001 (ip), vehicle: Klucel (hydroxypropylcellulose) (HPC) 97 % of control | dose: 200.0 mg/kg/injection, schedule: Q01DX001 (ip), vehicle: Klucel (hydroxypropylcellulose) (HPC) 97 % of control | dose: 400.0 mg/kg/injection, schedule: Q01DX001 (ip), vehicle: Klucel (hydroxypropylcellulose) (HPC) 101 % of control

O=C(Cc1ccccc1)c1ccccn1
inactive: dose: 100.0 mg/kg/injection, schedule: Q01DX001 (ip), vehicle: other 95 % of control | dose: 200.0 mg/kg/injection, schedule: Q01DX001 (ip), vehicle: other 98 % of control | dose: 400.0 mg/kg/injection, schedule: Q01DX001 (ip), vehicle: other 101 % of control

CC(C)(C)c1cccc(C(=O)O)c1O
inactive: dose: 100.0 mg/kg/injection, schedule: Q01DX001 (ip), vehicle: carboxymethylcellulose (CMC) 97 % of control | dose: 200.0 mg/kg/injection, schedule: Q01DX001 (ip), vehicle: carboxymethylcellulose (CMC) 97 % of control | dose: 400.0 mg/kg/injection, schedule: Q01DX001 (ip), vehicle: carboxymethylcellulose (CMC) 90 % of control

CCCCCCCCCCCCCCCCCCC[As](=O)(O)CCCCCCCCCCCCCCCCCCC
inactive: [21] 97 % of control | [15] 89 % of control | [16] 95 % of control | [17] 91 % of control

O=C(O)C1C2C=CC(C2)C1c1ccccc1 (stereo not given)
inactive: [5] 101 % of control | [18] 97 % of control | [12] 97 % of control | [19] 93 % of control | [13] 98 % of control | [20] 114 % of control

O=C(Nc1ccc(Cl)c(Cl)c1)Oc1ccc(Cl)cc1C(=O)Nc1ccccc1
inactive: [22] 100 % of control | [23] 100 % of control | [24] 87 % of control

[CH3][Sn]([CH3])([CH3])[c]1ccc(-c2ccccc2)cc1
inactive: dose: 25.0 mg/kg/injection, schedule: Q04DX002 (ip), vehicle: Klucel (hydroxypropylcellulose) (HPC) 92 % of control | dose: 50.0 mg/kg/injection, schedule: Q04DX002 (ip), vehicle: Klucel (hydroxypropylcellulose) (HPC) 95 % of control | [6] 100 % of control

O=C(Nc1cc(C(F)(F)F)ccc1Cl)C(=O)Nc1cc(C(F)(F)F)ccc1Cl
inactive: dose: 100.0 mg/kg/injection, schedule: Q01DX009 (ip), vehicle: gum acacia 88 % of control | dose: 200.0 mg/kg/injection, schedule: Q01DX009 (ip), vehicle: gum acacia 93 % of control | dose: 400.0 mg/kg/injection, schedule: Q01DX009 (ip), vehicle: gum acacia 93 % of control

O=C(Nc1ccc(Cl)cc1)Oc1ccc(Cl)cc1Cl
inactive: dose: 25.0 mg/kg/injection, schedule: Q01DX009 (ip), vehicle: DMSO 92 % of control | dose: 25.0 mg/kg/injection, schedule: Q04DX002 (ip), vehicle: DMSO 94 % of control | dose: 50.0 mg/kg/injection, schedule: Q01DX009 (ip), vehicle: DMSO 86 % of control | dose: 50.0 mg/kg/injection, schedule: Q04DX002 (ip), vehicle: DMSO 87 % of control | dose: 200.0 mg/kg/injection, schedule: Q04DX002 (ip), vehicle: DMSO 96 % of control

COc1ccc(OC(=O)Nc2ccccc2[N+](=O)[O-])cc1
inactive: [18] 106 % of control | [19] 94 % of control | [20] 95 % of control

O=C1NCCC/C1=N/Nc1ccccc1
inactive: [6] 92 % of control | [7] 92 % of control | [8] 113 % of control

O=C(CC(C(=O)c1ccccc1)c1ccccc1)c1ccccc1 (stereo not given)
inactive: [22] 93 % of control and 89 % of control | [23] 103 % of control | [24] 94 % of control and 103 % of control

Cc1nc(N)[nH]c(=O)c1N=Nc1ccc(S(=O)(=O)O)cc1
inactive: [21] 98 % of control | [15] 98 % of control | [16] 104 % of control

CCCNc1ccc(C2=NCCCN2)cc1
inactive: [15] 102 % of control

OC1OCC(Cc2ccc3c(c2)OCO3)C1Cc1ccc2c(c1)OCO2 (stereo not given)
inactive: [9] 91 % of control | [10] 99 % of control | [11] 88 % of control

Cln1nnc2ccccc21
inactive: dose: 100.0 mg/kg/injection, schedule: Q04DX002 (ip), vehicle: other 91 % of control | dose: 200.0 mg/kg/injection, schedule: Q04DX002 (ip), vehicle: other 106 % of control

CN(CCO)N=Nc1ccccc1Cl
inactive: dose: 25.0 mg/kg/injection, schedule: Q01DX009 (ip), vehicle: other 101 % of control | dose: 50.0 mg/kg/injection, schedule: Q01DX009 (ip), vehicle: other 100 % of control | dose: 100.0 mg/kg/injection, schedule: Q01DX009 (ip), vehicle: other 94 % of control

O=C(Nc1ccc(F)cc1)C(Br)C(Br)c1ccccc1 (stereo not given)
inactive: [22] 88 % of control | [23] 102 % of control | [24] 91 % of control
